pEC50: −log10 of the molar value. Counter-ions that a name gives are not always drawn.
Assays:
KB (nasopharyngeal) = test: Cell growth inhibition assay (SRB), Example 2, KB; assay type: cell-based, human; conditions: Table 6, 72-h continuous treatment
Description: (§1) Drug-Resistance Study. Twelve active compounds [including four hydrochloride salts (18b, 22b, 24b, 32b) of corresponding active free bases (18a, 22a, 24a, 32a)] were further screened against an extended panel of human tumor cell lines including DU-145 (prostate), ZR-751 (breast), KB (nasopharyngeal), and KB-VIN (multidug-resistant KB subline) in order to explore their antitumor spectra and drug-resistance profiles. Four compounds were used as reference compounds. Antofine is a positional isomer of tylophorine isolated from Asclepiadaceae by Dr. T. S. Wu in Taiwan (Wu, P. L. et al., Heterocycles 2002; 57:2401). […] Doxorubicin (Adriamycin), vincristine, and etoposide (VP-16, Vepesid®) are widely used anticancer agents for treating a range of solid tumors.
(§2) Cell Growth Inhibition Assay. The sulforhodamine B assay was used according to the procedures developed and validated at NCI. The in vitro anticancer activities are expressed as ED50 values, which is the test compound concentration (μM) that reduced the cell number by 50% after 72-h of continuous treatment. The values were interpolated from dose-response data. Each test was performed in triplicate with variation less than 5%. The ED50 values determined in each of independent tests varied less than 10%. Compound stock solutions were prepared in DMSO with the final solvent concentration ≦1% DMSO (v/v), a concentration without effect on cell replication. The cells were cultured at 37° C. in RPMI-1640 supplemented with 25 mM N-2-hydroxyethylpiperazine-N′-2-ethanesulfonic acid (HEPES), […], 10% (v/v) fetal bovine serum, and 100 μg/mL kanamycin in a humidified atmosphere containing 5% CO2.

[1] = system: human A549 lung cancer cell line; test: Cell growth inhibition assay (SRB), Example 2, A549; assay type: cell-based
Description: Cell Growth Inhibition Assay. The sulforhodamine B assay was used according to the procedures developed and validated at NCI. […] The values were interpolated from dose-response data.

DU-145 (prostate) = test: Cell growth inhibition assay (SRB), Example 2, DU-145; assay type: cell-based, human; conditions: Table 6, 72-h continuous treatment
Description: as §1, §2

ZR-751 (breast) = test: Cell growth inhibition assay (SRB), Example 2, ZR-751; assay type: cell-based, human; conditions: Table 6, 72-h continuous treatment
Description: as §1, §2

[2] = system: KB-VIN (multidug-resistant KB subline); test: Cell growth inhibition assay (SRB), Example 2, KB-VIN; assay type: cell-based, human; conditions: Table 6, 72-h continuous treatment
Description: as §1, §2

[3] = system: human A549 lung cancer cell line; test: Cell growth inhibition assay (SRB), Example 1; assay type: cell-based; conditions: Homo sapiens; table footnotes of Example 1; A549
Description: Results and discussion. […] Etoposide (VP-16) was used as the reference compound.
Cell Growth Inhibition Assay. The human A549 lung cancer cell line was used for the cytotoxicity screening of PBT derivatives using the cell-based sulforhodamine B (SRB) microtitre plate assay. […] Duration of compound exposure was 3 days.

[4] = system: tumor cell line panel (A549, KB, DU-145, ZR-751, KB-VIN); test: Cytotoxic activity against the whole tumor cell line panel; assay type: cell-based, human; conditions: all cell lines of the panel; read-out: ED50 values against the tumor cell line panel
Description: as §1
Cell Growth Inhibition Assay. The sulforhodamine B assay was used according to the procedures developed and validated at NCI. The in vitro anticancer activities are expressed as ED50 values, which is the test compound concentration (μM) that reduced the cell number by 50% after 72-h of continuous treatment. The values were interpolated from dose-response data. Each test was performed in triplicate with variation less than 5%. The ED50 values determined in each of independent tests varied less than 10%. […]

[5] = Homo sapiens, A549, 72 h, Table 4, ED50, 72-h continuous treatment, NA = not active, read-out: A549 (μM), in vitro anticancer activity against A549 lung cancer cells
[6] = Homo sapiens, A549, 72 h, Table 6, 72-h continuous treatment, read-out: EC50 (μM) A549
[7] = Table 6, 72-h continuous treatment, hydrochloride, read-out: EC50 (μM) A549

pEC50 [3]	EC50 ([2]; Homo sapiens, KBVIN, 72 h) [µM]	Structure (SMILES)	EC50 (KB (nasopharyngeal); Homo sapiens, 72 h) [µM]	EC50 [1, 5] [µM]	EC50 [1, 6] [µM]	EC50 (DU-145 (prostate); Homo sapiens, DU-145, 72 h) [µM]	melting point [°C]	EC50 (ZR-751 (breast); Homo sapiens, ZR-75-1, 72 h) [µM]	EC50 [2] [µM]	EC50 (KB (nasopharyngeal)) [µM]	EC50 (KB (nasopharyngeal); hydrochloride) [µM]	EC50 [1, 7] [µM]	EC50 (DU-145 (prostate); hydrochloride) [µM]	EC50 (ZR-751 (breast); hydrochloride) [µM]	EC50 ([2]; hydrochloride) [µM]	pEC50 [4]
–	–	COc1ccc2c(CNCCCCCCO)cc3cc4c(cc3c2c1)OCO4 [Compound 22a, N-(2,3-Methylenedioxy-6-methoxy-phenanthr-9-ylmethyl)-6-aminohexanol]	0.25	0.2	0.16	0.04	145 to 147	0.13	0.35	–	–	–	–	–	–	–
–	–	COc1ccc2c(CN3CCC(CCO)CC3)cc3cc4c(cc3c2c1)OCO4 [Compound 32a, N-(2,3-Methylenedioxy-6-methoxy-phenanthr-9-ylmethyl)-4-piperidineethanol]	–	0.15	0.15	0.15	148 to 149	0.03	0.5	0.42	–	–	–	–	–	–
5.85	> 10	COc1cc([C@@H]2c3cc4c(cc3[C@@H](O[C@@H]3O[C@@H]5CO[C@@H](C)O[C@H]5[C@H](O)[C@H]3O)[C@H]3COC(=O)[C@H]23)OCO4)cc(OC)c1O [Etoposide (VP-16), Etoposide, reference compound]	4.8	1.4	1.4	2.4	–	3.1	–	–	–	–	–	–	–	–
–	–	COc1ccc2c(CNCCCCCCO)cc3cc4c(cc3c2c1)OCO4.Cl [Compound 22b, N-(2,3-Methylenedioxy-6-methoxy-phenanthr-9-ylmethyl)-6-aminohexanol hydrochloride]	–	–	–	–	187 to 188	–	–	–	0.23	0.13	0.07	0.08	0.16	–
–	–	COc1ccc2c(CN3CCC(CO)CC3)cc3cc4c(cc3c2c1)OCO4 [Compound 24b, N-(2,3-Methylenedioxy-6-methoxy-phenanthr-9-ylmethyl)-L-4-piperidinemethanol hydrochloride]	–	–	–	–	–	–	–	–	0.07	0.07	0.05	0.04	0.04	> 7.00

From patent US8188089B2, “Tylophorine analogs as antitumor agents” (The University of North Carolina at Chapel Hill, priority 2006, dated 2012)
